The text below walks through data of US11497751B2, “Modulators of Rho-associated protein kinase” (Redx Pharma PLC, priority 2018, dated 2022).

A value given as a limit tells only on which side of the number the result lay.

The first assay deals with T1, N-terminal 6His-tagged ROCK2 catalytic domain 11-552 (Homo sapiens, UniProt O75116).
T1 construct: N-terminal 6His-tagged ROCK2 catalytic domain 11-552; 6His (N); purchased Dundee University, UK; host or cells: baculovirus expression system
T1 sequence (O75116 11-552): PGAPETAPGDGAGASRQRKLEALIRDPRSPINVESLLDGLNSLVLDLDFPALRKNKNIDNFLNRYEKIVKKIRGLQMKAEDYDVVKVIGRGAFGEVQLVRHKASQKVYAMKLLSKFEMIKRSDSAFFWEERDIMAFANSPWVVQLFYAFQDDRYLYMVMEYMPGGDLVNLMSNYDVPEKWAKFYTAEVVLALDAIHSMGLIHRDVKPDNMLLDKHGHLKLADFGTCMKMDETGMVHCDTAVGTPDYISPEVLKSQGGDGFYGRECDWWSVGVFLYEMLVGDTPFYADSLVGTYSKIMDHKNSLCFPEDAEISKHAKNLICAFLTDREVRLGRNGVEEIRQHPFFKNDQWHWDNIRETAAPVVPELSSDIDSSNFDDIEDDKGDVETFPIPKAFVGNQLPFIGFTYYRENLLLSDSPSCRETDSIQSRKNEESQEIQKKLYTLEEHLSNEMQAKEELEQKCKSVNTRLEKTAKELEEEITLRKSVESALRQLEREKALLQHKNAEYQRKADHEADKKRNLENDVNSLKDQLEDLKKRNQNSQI
The experiment in a line: ROCK2 binding activity: ROCK2 inhibition, ADP-Glo Kinase Assay. The note with it: 1.25 nM ROCK2, 100 μM long S6 peptide, 20 μM ATP; 1 hour pre-incubation; read-out: ADP-Glo kinase activity assay ROCK2 Category. The assay is classed as biochemical. The method, boiled down: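 1.25 nM baculovirus-expressed ROCK2 pre-incubated 1 h with compound (1% DMSO), then 100 μM long S6 peptide and 20 μM ATP added for 1 h; 50 mM HEPES pH 7.5, 10 mM Mg acetate, 1 mM DTT. ADP-Glo luminescence; IC50 from four-parameter logistic fit.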
For the compound `Cn1nc(-c2ccc(C(=O)NCC(F)(F)F)cc2)nc1Nc1ccc2[nH]nc(Cl)c2c1` [Example 430], the IC50 is less than 300 nM.

Turning to `COc1cc(-c2nc(Nc3cc4cn[nH]c4cc3F)n(C)n2)ccc1C(=O)NC(C)(C)C` [Example 432], the IC50 is 3000 to 10000 nM. Regarding `COc1cc(-c2nc(Nc3cnc4[nH]ncc4c3)n(C)n2)ccc1OCC(=O)NC(C)C` [Example 433], the IC50 lay in the range of 300 to 3000 nM. On to `COc1cc(-c2nc(Nc3ccc4[nH]ncc4c3Cl)n(CCN3CCOCC3)n2)ccc1OCC(=O)NC(C)C` [Example 434], for which the IC50 was less than 300 nM.

Turning to `Cc1cc(-c2nc(Nc3ccc4[nH]ncc4c3Cl)n(CC(C)C)n2)ccc1C(=O)NCC(F)(F)F` [Example 435], the IC50 was less than 300 nM. On to `COc1cc(-c2nc(Nc3ccc4[nH]ncc4c3Cl)n(CC(C)C)n2)ccc1OCC(=O)NC(C)C` [Example 436], for which the IC50 was less than 300 nM.

For the compound `COc1cc(-c2nc(Nc3ccc4[nH]ncc4c3Cl)n(CC(C)C)n2)ccc1C(=O)NCC(F)(F)F` [Example 437], the IC50 is less than 300 nM.

Consider `COCCn1nc(-c2ccc(C(=O)NCC(F)(F)F)cc2)nc1Nc1ccc2[nH]ncc2c1C1CC1` [Example 438], for which the IC50 is less than 300 nM. As to `COCCn1nc(-c2ccc(C(=O)NCC(F)(F)F)c(OC)c2)nc1Nc1ccc2[nH]ncc2c1C1CC1` [Example 439], the IC50 is less than 300 nM.

On to `COCCn1nc(-c2ccc(C(=O)NC3CC3)cc2)nc1Nc1ccc2[nH]ncc2c1C1CC1` [Example 440], for which the IC50 is less than 300 nM. Take `CCn1nc(-c2ccc(C(=O)NCC(F)(F)F)c(OC)c2)nc1Nc1ccc2[nH]ncc2c1C1CC1` [Example 441]: the IC50 is less than 300 nM. With `O=C(NCC(F)(F)F)c1ccc(-c2nc(Nc3ccc4[nH]ncc4c3C3CC3)n(C3CCNCC3)n2)cc1` [Example 442], the IC50 is less than 300 nM. For `CNCCn1nc(-c2ccc(C(=O)NCC(F)(F)F)cc2)nc1Nc1ccc2[nH]ncc2c1C1CC1` [Example 443], the IC50 was less than 300 nM. In the case of `CC(O)Cn1nc(-c2ccc(C(=O)NCC(F)(F)F)cc2)nc1Nc1ccc2[nH]ncc2c1C1CC1` (stereo not shown) [Example 444], the IC50 was less than 300 nM. As to `COc1cc(-c2nc(Nc3ccc4[nH]ncc4c3)n(CCN3CCCCC3)n2)ccc1OCC(=O)NC(C)C` [Example 445], the IC50 was less than 300 nM. As for `COc1cc(-c2nc(Nc3ccc4[nH]ncc4c3)n(CCN3CCOCC3)n2)ccc1OCC(=O)NC(C)C` [Example 446], the IC50 was less than 300 nM. The same measure, in the same setting: in the case of `COCCn1nc(-c2ccc(OCC(=O)NC(C)C)c(OC)c2)nc1Nc1ccc2[nH]ncc2c1` [Example 447] it was less than 300 nM. The same measure, in the same setting: the result for `COCCn1nc(-c2ccc(C(=O)NCC(F)(F)F)c(OC)c2)nc1Nc1ccc2[nH]ncc2c1C` [Example 448] reads less than 300 nM; that for `COc1cc(-c2nc(Nc3ccc4[nH]ncc4c3C)n(C(C)C)n2)ccc1C(=O)NCC(F)(F)F` [Example 449], less than 300 nM; that for `COc1cc(-c2nc(Nc3ccc4[nH]ncc4c3C)n(C(C)C)n2)ccc1OCC(=O)NC(C)C` [Example 450], less than 300 nM. Regarding `Cc1cc(-c2nc(Nc3ccc4[nH]ncc4c3C)n(CC(C)C)n2)ccc1C(=O)NCC(F)(F)F` [Example 451], the IC50 was less than 300 nM. For the compound `COc1cc(-c2nc(Nc3ccc4[nH]ncc4c3C)n(CC(C)C)n2)ccc1OCC(=O)NC(C)C` [Example 452], the IC50 was less than 300 nM. As for `COCCn1nc(-c2ccc(C(=O)NCC(F)(F)F)cc2)nc1Nc1ccc2[nH]ncc2c1C` [Example 453], the IC50 is less than 300 nM.

With `COCCn1nc(-c2ccc(C(=O)NCC(F)(F)F)c(C)c2)nc1Nc1ccc2[nH]ncc2c1C` [Example 454], the IC50 is less than 300 nM. For `COc1cc(-c2nc(Nc3ccc4[nH]ncc4c3C)n(CC(C)C)n2)ccc1C(=O)NCC(F)(F)F` [Example 455], the IC50 was less than 300 nM. In the case of `COc1cc(-c2nc(Nc3ccc4[nH]ncc4c3C)n(C3CC3)n2)ccc1C(=O)NCC(F)(F)F` [Example 456], the IC50 is less than 300 nM. As to `CCn1nc(-c2ccc(C(=O)NCC(F)(F)F)c(OC)c2)nc1Nc1ccc2[nH]ncc2c1C` [Example 457], the IC50 is less than 300 nM. Consider `C=C(C)c1c(Nc2nc(-c3ccc(C(=O)NCC(F)(F)F)cc3)nn2C)ccc2[nH]ncc12` [Example 458, 4-[5-[(4-isopropenyl-1H-indazol-5-yl)amino]-1-methyl-1,2,4-triazol-3-yl]-N-(2,2,2-trifluoroethyl)benzamide], for which the IC50 was less than 300 nM.

With `C=C(C)c1c(Nc2nc(-c3ccc(C(=O)NCC)cc3)nn2C)ccc2[nH]ncc12` [Example 459, N-ethyl-4-[5-[(4-isopropenyl-1H-indazol-5-yl)amino]-1-methyl-1,2,4-triazol-3-yl]benzamide], the IC50 was less than 300 nM. As to `CC(C)NC(=O)COc1ccc(-c2nc(Nc3ccc4[nH]ncc4c3)n(C)n2)cc1` [Example 470], the IC50 is less than 300 nM.

Take `CC(C)NC(=O)COc1ccc(-c2nc(Nc3ccc4[nH]ncc4c3Cl)n(C)n2)cc1` [Example 471]: the IC50 is less than 300 nM. On to `CC(C)NC(=O)COc1ccc(-c2nc(Nc3ccc4[nH]ncc4c3Cl)n(C)n2)cc1Cl` [Example 472], for which the IC50 was less than 300 nM. Turning to `CC(C)NC(=O)COc1ccc(-c2nc(Nc3ccc4[nH]ncc4c3)n(C)n2)cc1F` [Example 473], the IC50 was less than 300 nM. As for `CC(C)NC(=O)COc1ccc(-c2nc(Nc3ccc4[nH]ncc4c3Cl)n(C)n2)cc1F` [Example 474], the IC50 was less than 300 nM.

For the compound `CC(C)NC(=O)COc1ccc(-c2nc(Nc3ccc4[nH]ncc4c3Cl)n(C)n2)c(C(F)(F)F)c1` [Example 475], the IC50 was less than 300 nM.

Another assay concerns T cells.
Assay: not given
To be noted: oral administration of KD025, healthy human subjects, ex-vivo stimulation of T-cells; cited from earlier work.
For `CC(C)NC(=O)COc1cccc(-c2nc(Nc3ccc4[nH]ncc4c3)c3ccccc3n2)c1` [KD025], the “reduction of the ability of T cells to secrete IL-17” value was 60% and the “reduction of the ability of T cells to secrete IL-21” value is 90%.
